Source: patent US20230143604A1, “QW DOSING OF GIP RECEPTOR AGONIST PEPTIDE COMPOUNDS AND USES THEREOF” (TAKEDA PHARMACEUTICAL COMPANY LIMITED, priority 2020, published 2023)
Starred links: 1 amine or outer side, 2 acyl side, 3 side chain; linkers in the order of their positions; H or OH if unused. Non-standard residues stand in square brackets, D forms with d. Residues, ends and D or L forms follow the SMILES beside them. Groups on a side chain read outwards from the residue. *: point of attachment. C18 diacid = O=C(O)CCCCCCCCCCCCCCCCC(=O)*; C17 diacid = O=C(O)CCCCCCCCCCCCCCCC(=O)*; γGlu = O=C(O)[C@H](CCC(=O)[*:2])N[*:1]; NMeY = CN[C@@H](Cc1ccc(O)cc1)C(=O)O; AEEA = NCCOCCOCC(=O)O; Aib = CC(C)(N)C(=O)O

Assay: physchem
Conditions: pH 7.4, aqueous buffer
Procedure, shortened: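 Solubility at pH 7.4 determined by stepwise addition of 200 mM phosphate buffer in 100 μL increments to 3 mg peptide, mixing briefly each time, until no insoluble material remained, then measured by liquid chromatography.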

[1] = pH 7.4 Phosphate Buffer - Solubility, 200 mM Phosphate buffer pH 7.4

Row | Structure (SMILES) | solubility [µg/mL] | solubility [1] [µg/mL]
1 | CC[C@H](C)[C@H](NC(=O)[C@H](Cc1ccccc1)NC(=O)[C@@H](NC(=O)CNC(=O)[C@H](CCC(=O)O)NC(=O)C(C)(C)NC(=O)[C@H](Cc1ccc(O)cc1)NC)[C@@H](C)O)C(=O)N[C@@H](CO)C(=O)N[C@@H](CC(=O)O)C(=O)N[C@@H](Cc1ccc(O)cc1)C(=O)N[C@@H](CO)C(=O)N[C@H](C(=O)NC(C)(C)C(=O)N[C@@H](CCCCNC(=O)CNC(=O)CNC(=O)CNC(=O)CNC(=O)CNC(=O)CC[C@H](NC(=O)CCCCCCCCCCCCCCCC(=O)O)C(=O)O)C(=O)N[C@@H](CC(=O)O)C(=O)N[C@@H](CCCNC(=N)N)C(=O)NC(C)(C)C(=O)N[C@@H](C)C(=O)N[C@@H](CCC(N)=O)C(=O)NC(C)(C)C(=O)N[C@@H](CC(=O)O)C(=O)N[C@@H](Cc1ccccc1)C(=O)N[C@H](C(=O)N[C@@H](CC(N)=O)C(=O)N[C@@H](Cc1c[nH]c2ccccc12)C(=O)N[C@@H](CC(C)C)C(=O)N[C@@H](CC(C)C)C(=O)N[C@@H](C)C(=O)N[C@@H](CCC(N)=O)C(=O)N[C@@H](CCCNC(=N)N)C(N)=O)C(C)C)[C@@H](C)CC [Compound 265] | ≥ 7500 | –
2 | CC[C@H](C)[C@H](NC(=O)[C@H](CO)NC(=O)[C@H](Cc1ccc(O)cc1)NC(=O)[C@H](CC(=O)O)NC(=O)[C@H](CO)NC(=O)[C@@H](NC(=O)[C@H](Cc1ccccc1)NC(=O)[C@@H](NC(=O)CNC(=O)[C@H](CCC(=O)O)NC(=O)C(C)(C)NC(=O)[C@H](Cc1ccc(O)cc1)NC)[C@@H](C)O)[C@@H](C)CC)C(=O)N[C@@H](C)C(=O)N[C@@H](CC(C)C)C(=O)N[C@@H](CC(=O)O)C(=O)N[C@@H](CCCNC(=N)N)C(=O)N[C@@H](CCCCNC(=O)COCCOCCNC(=O)COCCOCCNC(=O)CC[C@H](NC(=O)CCCCCCCCCCCCCCCC(=O)O)C(=O)O)C(=O)N[C@@H](C)C(=O)N[C@@H](CCC(N)=O)C(=O)NC(C)(C)C(=O)N[C@@H](CC(N)=O)C(=O)N[C@@H](Cc1ccccc1)C(=O)N[C@H](C(=O)N[C@@H](CC(N)=O)C(=O)N[C@@H](Cc1c[nH]c2ccccc12)C(=O)N[C@@H](CC(C)C)C(=O)N[C@@H](CC(C)C)C(=O)N[C@@H](C)C(=O)N[C@@H](CCC(N)=O)C(=O)N[C@@H](CCCNC(=N)N)C(=O)N1CCC[C@H]1C(=O)N[C@@H](CO)C(=O)N[C@@H](CO)C(=O)NCC(=O)N[C@@H](C)C(=O)N1CCC[C@H]1C(=O)N1CCC[C@H]1C(=O)N1CCC[C@H]1C(=O)N[C@@H](CO)C(N)=O)C(C)C [Compound 266] (H-[NMeY][Aib]EGTFISDYSIALDRK([AEEA-AEEA-γGlu-C17 diacid])AQ[Aib]NFVNWLLAQRPSSGAPPPS-NH2) | – | < 6000
3 | CC[C@H](C)[C@H](NC(=O)[C@H](Cc1ccccc1)NC(=O)[C@@H](NC(=O)CNC(=O)[C@H](CCC(=O)O)NC(=O)C(C)(C)NC(=O)[C@H](Cc1ccc(O)cc1)NC)[C@@H](C)O)C(=O)N[C@@H](CO)C(=O)N[C@@H](CC(=O)O)C(=O)N[C@@H](Cc1ccc(O)cc1)C(=O)N[C@@H](CO)C(=O)N[C@H](C(=O)NC(C)(C)C(=O)N[C@@H](CC(C)C)C(=O)N[C@@H](CC(=O)O)C(=O)N[C@@H](CCCNC(=N)N)C(=O)NC(C)(C)C(=O)N[C@@H](C)C(=O)N[C@@H](CCC(N)=O)C(=O)NC(C)(C)C(=O)N[C@@H](CCCCNC(=O)COCCOCCNC(=O)COCCOCCNC(=O)CC[C@H](NC(=O)CC[C@H](NC(=O)CCCCCCCCCCCCCCCCC(=O)O)C(=O)O)C(=O)O)C(=O)N[C@@H](Cc1ccccc1)C(=O)N[C@H](C(=O)N[C@@H](CC(N)=O)C(=O)N[C@@H](Cc1c[nH]c2ccccc12)C(=O)N[C@@H](CC(C)C)C(=O)N[C@@H](CC(C)C)C(=O)N[C@@H](C)C(=O)N[C@@H](CCC(N)=O)C(=O)N[C@@H](CCCNC(=N)N)C(N)=O)C(C)C)[C@@H](C)CC [Compound 267] (H-[NMeY][Aib]EGTFISDYSI[Aib]LDR[Aib]AQ[Aib]K([AEEA-AEEA-γGlu-γGlu-C18 diacid])FVNWLLAQR-NH2) | < 6000 | –
4 | CC[C@H](C)[C@H](NC(=O)[C@H](CO)NC(=O)[C@H](Cc1ccc(O)cc1)NC(=O)[C@H](CC(=O)O)NC(=O)[C@H](CO)NC(=O)[C@@H](NC(=O)[C@H](Cc1ccccc1)NC(=O)[C@@H](NC(=O)CNC(=O)[C@H](CCC(=O)O)NC(=O)C(C)(C)NC(=O)[C@H](Cc1ccc(O)cc1)NC)[C@@H](C)O)[C@@H](C)CC)C(=O)N[C@@H](C)C(=O)N[C@@H](CC(C)C)C(=O)N[C@@H](CC(=O)O)C(=O)N[C@@H](CCCNC(=N)N)C(=O)NC(C)(C)C(=O)N[C@@H](CCCCNC(=O)COCCOCCNC(=O)COCCOCCNC(=O)CC[C@H](NC(=O)CCCCCCCCCCCCCCCC(=O)O)C(=O)O)C(=O)N[C@@H](CCC(N)=O)C(=O)NC(C)(C)C(=O)N[C@@H](CC(N)=O)C(=O)N[C@@H](Cc1ccccc1)C(=O)N[C@H](C(=O)N[C@@H](CC(N)=O)C(=O)N[C@@H](Cc1c[nH]c2ccccc12)C(=O)N[C@@H](CC(C)C)C(=O)N[C@@H](CC(C)C)C(=O)N[C@@H](C)C(=O)N[C@@H](CCC(N)=O)C(=O)N[C@@H](CO)C(=O)N1CCC[C@H]1C(=O)N[C@@H](CO)C(=O)N[C@@H](CO)C(=O)NCC(=O)N[C@@H](C)C(=O)N1CCC[C@H]1C(=O)N1CCC[C@H]1C(=O)N1CCC[C@H]1C(=O)N[C@@H](CO)C(N)=O)C(C)C [Compound 268] (H-[NMeY][Aib]EGTFISDYSIALDR[Aib]K([AEEA-AEEA-γGlu-C17 diacid])Q[Aib]NFVNWLLAQSPSSGAPPPS-NH2) | – | ≥ 10000
5 | CC[C@H](C)[C@H](NC(=O)[C@H](CO)NC(=O)[C@H](Cc1ccc(O)cc1)NC(=O)[C@H](CC(=O)O)NC(=O)[C@H](CO)NC(=O)[C@@H](NC(=O)[C@H](Cc1ccccc1)NC(=O)[C@@H](NC(=O)CNC(=O)[C@H](CCC(=O)O)NC(=O)C(C)(C)NC(=O)[C@H](Cc1ccc(O)cc1)NC)[C@@H](C)O)[C@@H](C)CC)C(=O)N[C@@H](C)C(=O)N[C@@H](CC(C)C)C(=O)N[C@@H](CC(=O)O)C(=O)N[C@@H](CCCNC(=N)N)C(=O)NC(C)(C)C(=O)N[C@@H](C)C(=O)N[C@@H](CCC(N)=O)C(=O)NC(C)(C)C(=O)N[C@@H](CCCCNC(=O)COCCOCCNC(=O)COCCOCCNC(=O)CC[C@H](NC(=O)CC[C@H](NC(=O)CCCCCCCCCCCCCCCCC(=O)O)C(=O)O)C(=O)O)C(=O)N[C@@H](Cc1ccccc1)C(=O)N[C@H](C(=O)N[C@@H](CC(N)=O)C(=O)N[C@@H](Cc1c[nH]c2ccccc12)C(=O)N[C@@H](CC(C)C)C(=O)N[C@@H](CC(C)C)C(=O)N[C@@H](C)C(=O)N[C@@H](CCC(N)=O)C(=O)N[C@@H](CCCNC(=N)N)C(N)=O)C(C)C [Compound 269] (H-[NMeY][Aib]EGTFISDYSIALDR[Aib]AQ[Aib]K([AEEA-AEEA-γGlu-γGlu-C18 diacid])FVNWLLAQR-NH2) | ≥ 7500 | –
